Assays:
animal models = details: cited from earlier work
hypertensive rats = experiment: Assay C: hypertensive rat model (renal artery clip); format: in vivo; details: combination of beta-adrenergic antagonist and eplerenone versus either component alone, after 12 to 24 weeks
Source text: Assay “C”: Hypertensive Rat Model Male rats are made hypertensive by placing a silver clip with an aperture of 240 microns on the left renal artery, leaving the contralateral kidney untouched. Sham controls undergo the same procedure but without attachment of the clip. One week prior to the surgery, animals to be made hypertensive are divided into separate groups and drug treatment is begun. […] After 12 to 24 weeks, systolic and diastolic blood pressure, left ventricular end diastolic pressure, left ventricular dP/dt, and heart rate are evaluated. The hearts are removed, weight, measured and fixed in formalin. Collagen content of heart sections are evaluated using computerized image analysis of picrosirius stained sections.

[1] = system: patients with mild to moderate hypertension; experiment: Example 19 clinical study: eplerenone versus placebo co-administered with a calcium-channel blocker; format: in vivo, human
Source text: This multicenter, randomized, double-blind, placebo-controlled, placebo run-in, parallel group trial involving a minimum of 120 randomized patients with hypertension (seated diastolic blood pressure [seDBP]≧95 mmHg and <110 mmHg and seated systolic BP [seSBP]<180 mmHg while taking a CCB) will consist of a one- to two-week pretreatment screening period followed by a two- to four-week single-blind placebo run-in period and an 8-week double-blind treatment period. Eligible patients will be patients currently receiving a CCB as part of their antihypertensive medication. […] The dose will not be changed for patients with adequate BP control. […] If the dose has been increased at Week 2, the patient will be reassessed at Week 6. […] If BP is uncontrolled at Week 6 and the dose has been increased at Week 2 or Week 4, the patient must be withdrawn from the study. If symptomatic hypotension (i.e., lightheadedness, dizziness, or syncope associated with low BP) occurs at any time during the study, or if DBP is ≧110 mmHg or SBP is ≧180 mmHg at any time during the trial, the patient must be withdrawn. Patients will receive study medication for a total of 8 weeks.
Patients will return to the clinic for evaluations at Weeks 0 (baseline), 2, 4, 6, 8, and 9. Heart rate, BP, adverse events and concomitant medication will be assessed at each visit. Hematology and biochemistry evaluations and urinalysis for safety will be at Weeks 0, 8, and 9. Serum potassium levels will be determined at Weeks 0 (baseline), 2, 4, 6, 8, and 9. Plasma renin, serum aldosterone, and plasma cortisol will be determined at Weeks 0 and 8. A 12-lead electrocardiogram and physical examination will be done at screening and at Week 9.
The study will consist of a one- to two-week pretreatment screening period followed by a two- to four-week single-blind placebo run-in treatment period, prior to randomization to an eight-week double-blind treatment period.
Eligible patients will be either currently receiving a CCB alone, or receiving a CCB as part of their antihypertensive medication. […] The dose will not be changed for patients with adequate BP control. […] If the dose has been increased at Week 2, the patient will be reassessed at Week-6. The dose of study medication will not be changed for patients with adequate BP control. […] If BP is uncontrolled at Week 6 and the dose has been increased at Week 2 or Week 4, the patient must be withdrawn from the study. The dose of study medication will not be changed for patients with adequate BP control. If symptomatic hypotension (i.e., lightheadedness, dizziness, or syncope associated with low BP) occurs at any time during the study, or if DBP is ≧110 mmHg or SBP is ≧180 mmHg at any time during the study, the patient must be withdrawn. Patients will receive study medication for a total of eight weeks.
Patients will return to the clinic for evaluations at Weeks 0, 2, 4, 6, 8, and 9. Heart rate, BP, adverse events and concomitant medication will be assessed at each visit. Hematology and biochemistry evaluations and urinalysis for safety will be at Weeks 0, 8, and 9. Serum potassium levels will be determined at Weeks 0, 2, 4, 6, 8, and 9. Plasma renin, serum aldosterone, and plasma cortisol will be determined at Weeks 0 and 8. […]
BP evaluations will be analyzed at each visit using two-way analysis of covariance (ANCOVA) with the baseline measurement as the covariate and treatment and center as factors. […]

[2] = system: rats with coronary artery ligation; experiment: Assay D: myocardial infarction rat model; format: in vivo; details: combination of beta-adrenergic antagonist and eplerenone versus either component alone, after six weeks
Source text: Assay “D” Myocardial Infarction Rat Model: male rats are anesthetized and the heart is exteriorized following a left sided thoracotomy. The left anterior descending coronary artery is ligated with a suture. The thorax is closed and the animal recovers. Sham animals have the suture passed through without ligation. One week prior to the surgery, animals to undergo infraction are divided into separate groups and drug treatment is begun. […] After six weeks, systolic and diastolic blood pressure, left ventricular end diastolic pressure, left ventricular dP/dt, and heart rate are evaluated. The hearts are removed, weight, measured and fixed in formalin. Collagen content of heart sections are evaluated using computerized image analysis of picrosirius stained sections.

[3] = eplerenone plus CCB compared to CCB and placebo

Row | Structure (SMILES) | myocardial fibrosis (animal models; D. Klug et al 1993) | fibrosis (animal models; irrespective of left ventricular hypertrophy and hypertension, C. G. Brilla et al 1993) | cardiac performance (hypertensive rats) | systolic blood pressure ([1]; eplerenone 50-100 mg plus fixed dose CCB versus CCB plus placebo, eight weeks) | serious adverse events ([1]; eplerenone added to CCB therapy) | active renin levels [1, 3] | aldosterone levels [1, 3] | change in mean diastolic blood pressure ([1]; eplerenone plus CCB versus CCB plus placebo, eight weeks) | cardiac performance [2]
1 | CC(=O)S[C@@H]1CC2=CC(=O)CC[C@]2(C)[C@H]2CC[C@@]3(C)[C@@H](CC[C@@]34CCC(=O)O4)[C@H]12 [spironolactone] | prevents myocardial fibrosis | prevent fibrosis |  |  |  |  |  |  | 
2 | COC(=O)[C@@H]1CC2=CC(=O)CC[C@]2(C)[C@@]23O[C@@H]2C[C@@]2(C)[C@@H](CC[C@@]24CCC(=O)O4)[C@H]13 [eplerenone, Pregn-4-ene-7,21-dicarboxylic acid, 9,11-epoxy-17-hydroxy-3-oxo-,γ-lactone, methyl ester, (7α,11α,17β)-] |  |  | improvements in cardiac performance | significant reduction | no serious adverse events | greater increase | greater increase | greater for the dual therapy group, compared to monotherapy, but this difference did not reach statistical significance | improvements in cardiac performance

Source: patent US20040235809A1, “Epoxy steroidal aldosterone antagonist and beta-adremergic antagonist combination therepy for treatment of congestive heart failure” (priority 2000, published 2004)
